In patent publication US8178675B2, “Compounds for the treatment of metabolic disorders” (Wellstat Therapeutics Corporation, priority 2005, dated 2012):

Assays:
human PPARα = biological target: T1, human PPARα (Homo sapiens, UniProt Q07869); assay: Human PPARα transactivation assay (Gal4/PPAR-LBD, luciferase reporter); format: cell-based
T1 construct: expressed in transfected cells
T1 sequence (Q07869 167-468): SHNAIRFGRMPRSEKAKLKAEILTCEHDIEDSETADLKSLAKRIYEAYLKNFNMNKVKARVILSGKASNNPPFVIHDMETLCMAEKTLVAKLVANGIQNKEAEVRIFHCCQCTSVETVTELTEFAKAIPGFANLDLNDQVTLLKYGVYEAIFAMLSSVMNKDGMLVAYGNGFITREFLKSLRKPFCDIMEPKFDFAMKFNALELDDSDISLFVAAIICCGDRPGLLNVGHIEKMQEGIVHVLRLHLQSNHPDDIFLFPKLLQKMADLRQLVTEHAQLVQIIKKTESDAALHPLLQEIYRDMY
From the text: In order to examine the activity of Compound CW on PPARα, a transactivation assay was used. Transactivation assays take advantage of the modular domain structure of nuclear receptors. A fusion protein was made between the human or mouse PPAR ligand binding domain (PPAR-LBD) and the yeast Gal4 DNA binding domain (“activator plasmid”). The reporter gene construct consisted of the Gal4 DNA binding element in cis with a luciferase reporter. When an agonist binds the Gal4/PPAR-LBD, the fusion protein binds the Gal4 DNA binding element on the reporter gene resulting in transcription of the firefly luciferase gene. Luciferase oxidizes the substrate luciferin in an ATP-dependent reaction; the amount of light given off is a direct measure of the level of the enzyme and, consequently, of the activity of the ligand binding the PPAR-LBD.
The activator expressing plasmids contained a yeast GAL4 DNA-binding domain fused to the human PPARα ligand binding and hinge domains (a.a. 167-468). The reporter plasmid used was pFRLuc, which has the firefly luciferase gene under the control of a GAL4 UAS containing promoter (Stratagene (La Jolla, Calif.)).
One day prior to transfection, cells were seeded in 24-well plates at a density of 5×10^4-2×10^5 cells/well, depending upon the cell type. Cells were transfected using Lipofectamine 2000 reagent (Invitrogen (Calsbad, Calif.)). […]

db/db mice = assay: Antidiabetic effects in db/db mouse model of type II diabetes (serum chemistry after 2 weeks daily oral dosing); format: in vivo
From the text: db/db mice have a defect in leptin signaling, leading to hyperphagia, obesity and diabetes. Moreover, unlike ob/ob mice on a C57BL/6J background, db/db mice on a C57BLKS background undergo failure of their insulin-producing pancreatic islet cells, resulting in progression from hyperinsulinemia (associated with peripheral insulin resistance) to hypoinsulinemic diabetes.
Male obese (db/db homozygote) C57BL/Ksola mice approximately 8 weeks of age, were obtained from Jackson Labs (Bar Harbor, Me.) and randomly assigned into groups of 5-7 animals such that the body weights (40-45 g) and serum glucose levels (≧300 mg/dl in fed state) were similar between groups; male lean (db/+ heterozygote) mice served as cohort controls. A minimum of 7 days was allowed for adaptation after arrival. All animals were maintained under controlled temperature (23° C.), relative humidity (50±5%) and light (7:00-19:00), and allowed free access to standard chow (Formulab Diet 5008, Quality Lab Products, Elkridge, Md.) and water.
Mice received daily oral doses of vehicle or Compound CW for 2 weeks. At the end of the treatment period 100 μl of venous blood was withdrawn in a heparinized capillary tube from the retro-orbital sinus for serum chemistry analysis. Mice were in the fed state at the time of blood sampling.

[1] = after 2 weeks of daily oral dosing

For `Cc1cccc(C)c1COc1cccc(C(C)C(=O)O)c1` (racemic) [Compound CW, 2-(3-(2,6-Dimethylbenzyloxy)-phenyl)-2-(R,S)-methylacetic acid], the “Activity on human PPARα (type of agonism)” value (human PPARα; Gal4/human PPARα-LBD luciferase transactivation, 24 hours treatment, FIG. 1) was “partial agonist”, the “Glucose (serum glucose)” value (db/db mice; 100 mg/kg daily oral, 2 weeks, fed state, vehicle control 735 ± 66) was 171 ± 66 mg/dL and the “Effect on blood glucose” value (db/db mice; [1]) was “significant reduction”. The “Effect on serum triglycerides” value (db/db mice; [1]) was “reduced” and the “Triglycerides ± SEM (serum triglycerides)” value (db/db mice; daily oral dosing 2 weeks, fed state, vehicle 221 ± 62) was 109 ± 13 mg/dL.
For `Cc1cccc(Nc2cc(Cl)nc(SCC(=O)O)n2)c1C` [Wy-14,643, reference compound], the “Maximal activity in transactivation assay” value (human PPARα; positive control, same experiment) was ~40,000 RLU.
